Data reported in patent US11844786B2 (ADEPTIO PHARMACEUTICALS LIMITED, priority 2017, dated 2023).

System: amphetamine-induced rats
Settings: Study 1, 2.5 mg/kg, compared to vehicle-amphetamine group
Method: Locomotor activity of the rats was tested in open field arena.

Compound: COc1cc2c(cc1OC)[C@@H]1C[C@H](O)[C@@H](CC(C)C)CN1CC2 [(−)-α-DHTBZ, (2S, 3S, 11bS)-3-isobutyl-9,10-dimethoxy-1,3,4,6,7,11b-hexahydro-2H-pyrido[2,1,a]isoquinolin-2-ol]
- stereotypic behaviour: did not lead to lower locomotor activity or reduced stereotypic behaviour
- locomotor activity (distance travelled) (listed as (−)-α-isomer): very little, if any, reduction
